# Laboratory results from PubChem BioAssay (NCI).
# Values joined by “and” are separate entries in the source; they are usually repeats but may differ in a detail not shown here. Equal entries are not always repeated.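 These data come from cells grown in 96-well plates and exposed to compound for 48 hours at five concentrations. GI50 = concentration required for 50% inhibition of growth. At the TGI there is no net growth.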
# Legend:
# Experiment in all cases: NCI anticancer screen, dose series, 48 h
# [1] = test system: SF-268 CNS
# [2] = test system: NCI-H522 lung
# [3] = test system: OVCAR-3 ovarian
# [4] = test system: ACHN renal
# [5] = test system: TK-10 renal
# [6] = test system: HCT-116 colon
# [7] = test system: CAKI-1 renal
SMILES,TGI [1] [µM],TGI [2],TGI [3],TGI [4],TGI [5],TGI [6],TGI [7] [µM],GI50 [1] [µM],GI50 [2] [µM],GI50 [3] [µM],GI50 [7] [µM],GI50 [4] [µM],GI50 [5] [µM],GI50 [6] [µM]
N#CC1(CCCCl)CCCCC1,> 100,> 100 µM,> 100 µM,> 100 µM,> 100 µM,> 100 µM,,,,,,,,
CC(C)CCCC(C)C1CCC2C3CC([N+](=O)[O-])=C4CC(O)CCC4(C)C3CCC12C (configuration not stated),62.9,33.6 µM,49.4 µM,> 100 µM,39.6 µM,28.9 µM,66,,,,,,,
CCC12C=C(C(=O)OC)N3c4ccccc4C4CCN(CCC1)C2C43 (configuration not stated),> 100,> 100 µM,> 100 µM,> 100 µM,> 100 µM,> 100 µM,> 100,,,,,,,
Cc1ccccc1NC(=O)CC(=O)NNCC(=O)Nc1nnc(-c2ccccc2)s1,> 100,> 100 µM,> 100 µM,> 100 µM,> 100 µM,> 100 µM,> 100,,,,,,,
CC(C)(C)c1ccc(OCCOCCOc2ccc(C(C)(C)C)cc2S(N)(=O)=O)c(S(N)(=O)=O)c1,> 100,,> 100 µM,> 100 µM,> 100 µM,> 100 µM,> 100,,,,,,,
CC(=O)NC(CCCNC(=O)OCc1ccccc1)C(=O)NCc1ccccc1 (configuration not stated),> 100,> 100 µM,> 100 µM,> 100 µM,> 100 µM,> 100 µM,> 100,,,,,,,
CC1(C)CC(=O)C(C(=O)Nc2cccs2)=C(O)C1,> 100,> 100 µM,> 100 µM,> 100 µM,> 100 µM,> 100 µM,43.6,,,,,,,
O=C(CC1(O)C(=O)Nc2c(Cl)ccc(Cl)c21)c1ccc(Cl)cc1 (configuration not stated),94,,47.4 µM,38.7 µM,> 100 µM,70.6 µM,> 100,,,,,,,
COc1ccc(C(C)Nc2cc(OC)c(OC)c(OC)c2)cc1 (configuration not stated),9.59,17.6 µM,6.99 µM,> 100 µM,> 100 µM,> 46.2 µM,> 100,,,,,,,
CN(C)c1ccc(/C=C2\CCc3ccccc3C2=O)cc1Br,> 100,> 100 µM,> 100 µM,> 100 µM,> 100 µM,> 100 µM,> 100,,,,,,,
COC1=CC(=O)C(O)=C(CC2(C)C(C)CCC3(C)C2CCCC3(C)C)C1=O (configuration not stated),25.4,13 µM,26.5 µM,29.5 µM,37.2 µM,21.3 µM,16.7,,,,,,,
O=[N+]([O-])c1ccc(/C=C/c2ccc(/C=C/c3ccc([N+](=O)[O-])cc3[N+](=O)[O-])cc2)c([N+](=O)[O-])c1,,,> 100 µM,> 100 µM,> 100 µM,> 100 µM,> 100,,,,,,,
C/C(=C\c1ccccc1)C(O)C(=O)c1nc2ccc(Cl)cc2[nH]c1=O (configuration not stated),> 100,> 100 µM,> 100 µM,> 100 µM,> 100 µM,> 100 µM,> 100,,,,,,,
CN(C)CCNC(=O)c1cccc2c1nc(-c1cccnc1)c1ccccc12,22.2,,42 µM,14.4 µM,9.74 µM,13.8 µM,85.7,,,,,,,
CC(C)(C)C1CCC(O)(c2ccccc2)CC1 (configuration not stated),,> 100 µM and 55.1 µM,> 100 µM and 41.7 µM,> 100 µM and 59.9 µM,> 100 µM and 53.1 µM,> 100 µM and 47.9 µM,,,,,,,,
ON1CCc2c([nH]c3ccccc23)C1c1ccc(Cl)cc1 (configuration not stated),> 100,60 µM,74.5 µM,> 100 µM,> 100 µM,15.4 µM,,,,,,,,
CC(C)(C)C1CC[C@H]2c3c([nH]c4ccccc34)[C@H]3C(=O)N(c4ccc(F)cc4)C(=O)[C@H]3[C@H]2C1 (some centres not stated),30.8,25.3 µM,31 µM,27.2 µM,30.8 µM,25 µM,32.5,,,,,,,
O=C(/C=C(\[O-])c1ccccc1)CCCCCCC(=O)/C=C(\[O-])c1ccccc1.O=C(/C=C(\[O-])c1ccccc1)CCCCCCC(=O)/C=C(\[O-])c1ccccc1.O=C(/C=C(\[O-])c1ccccc1)CCCCCCC(=O)/C=C(\[O-])c1ccccc1.[Y+3].[Y+3],> 50,37.9 µM,> 50 µM,> 50 µM,> 50 µM,> 50 µM,> 50,41.5,9.86,> 50,> 50,40.3,> 50,14.9
COC(=O)C1CC(=O)O[C@H]1c1ccc(OC)c(OC)c1 (some centres not stated),> 100,,> 100 µM,> 100 µM,> 100 µM,> 100 µM,> 100,,,,,,,
N#Cc1c(CC(=O)O)cc(=O)n2c1[nH]c1ccccc12,> 100,,> 100 µM,> 100 µM,> 100 µM,> 100 µM,> 100,,,,,,,
CN(C)c1ccc(/C=c2/sc3nc(=O)c(-c4ccccc4NC(=O)C(F)(F)F)nn3c2=O)cc1,> 100,> 100 µM,> 100 µM,> 100 µM,> 100 µM,,> 100,,,,,,,
